Experimental data from publication PMC12860872, “Preclinical evaluation of DOTAGA.Glu.(FAPI)2 and DO3A.Glu.(FAPI)2 as theranostics with human dosimetry extrapolation to lutetium-177 and terbium-161 analogs” (European Journal of Nuclear Medicine and Molecular Imaging, 2025).
Several values for one entry are separate records, joined by “and”; a condition that tells them apart may be missing. Identical values can stand only once.

Assay: Extrapolated human dosimetry (OLINDA/EXM, ICRP-89 phantoms)
Method: To address inter-animal variability, the TIACs for each source organ were calculated from both the mean nTACs and the nTACs obtainend from fitting the mean ± 1 standard deviation (SD) of the normalized time-activity data, providing upper and lower bounds.
The mice-to-human TIAC extrapolation accounted for species-specific differences in relative source organ masses, m(organ), as compared to the total body weight (WB), for the mice (m) and human (h) models respectively.
(§1) The human organ masses, m(organ)h, were obtained from ICRP-89 adult male and female reference phantoms, while the murine organ masses, m(organ)m, were derived from the standard MOBY mouse model. The extrapolated human TIACs, TIACh were entered in the OLINDA/EXM software to compute the absorbed doses to target organs and the effective dose for adult male, female, and gender-averaged human models. […]
The TIACs, for [177Lu]Lu-DOTAGA.Glu.(FAPI)2 and [177Lu]Lu-DO3A.Glu.(FAPI)2, were determined by time integration of the nTACs. To account for the inter-animal variability, the TIACs for each source organ were calculated using both the mean nTACs and the nTACs obtainend from fitting the mean ±1 standard deviation (SD) of the normalized time-activity data. This approach provided the upper and the lower bounds for the estimated TIACs.
The mice-to-human TIAC extrapolation was obtained considering the different (species-specific) relative source organ masses, m(organ), as compared to the total body weight (WB), for the mice (m) and human (h) models respectively.
as §1, with “the” for “ICRP-89”, “models phantoms defined in ICRP-89,” for “phantoms,”, “TIACs values, TIACh, for each source organ” for “TIACs, TIACh”, “input into the kinetic module of” for “entered in”, “software (version 2.1, HERMES Medical Solutions AB, Stockholm, Sweden)” for “software”

[1] = ICRP 89 Adult Female, extrapolated
[2] = ICRP 89 Adult Male, extrapolated

- Absorbed dose (AD average) Adrenals [1]: 1.39E-02 mGy/Mbq
- Absorbed dose (AD average) Brain [1]: 3.68E-02 mGy/Mbq
- Absorbed dose (AD average) Breasts [1]: 3.54E-02 mGy/Mbq
- Absorbed dose (AD average) Esophagus [1]: 3.67E-02 mGy/Mbq
- Absorbed dose (AD average) Eyes [1]: 3.68E-02 mGy/Mbq
- Absorbed dose (AD average) Gallbladder Wall [1]: 3.79E-02 mGy/Mbq
- Absorbed dose (AD average) Heart Wall [1]: 3.39E-02 mGy/Mbq
- Absorbed dose (AD average) Left colon [1]: 3.75E-02 mGy/Mbq
- Absorbed dose (AD average) Ovaries [1]: 3.75E-02 mGy/Mbq
- Absorbed dose (AD average) Rectum [1]: 3.75E-02 mGy/Mbq
- Absorbed dose (AD average) Right colon [1]: 3.76E-02 mGy/Mbq
- Absorbed dose (AD average) Stomach Wall [1]: 3.75E-02 mGy/Mbq
- Absorbed dose (AD average) Thymus [1]: 3.72E-02 mGy/Mbq
- Absorbed dose (AD average) Thyroid [1]: 3.64E-02 mGy/Mbq
- Absorbed dose (AD average) Urinary Bladder Wall [1]: 3.70E-02 mGy/Mbq
- Absorbed dose (AD average) Uterus [1]: 3.73E-02 mGy/Mbq
- Effective dose (average) [1]: 4.10E-02
- Absorbed dose (AD average) Adrenals [2]: 1.05E-02 mGy/Mbq
- Absorbed dose (AD average) Brain [2]: 2.80E-02 mGy/Mbq
- Absorbed dose (AD average) Esophagus [2]: 2.84E-02 mGy/Mbq
- Absorbed dose (AD average) Eyes [2]: 2.80E-02 mGy/Mbq
- Absorbed dose (AD average) Gallbladder Wall [2]: 3.02E-02 mGy/Mbq
- Absorbed dose (AD average) Heart Wall [2]: 2.78E-02 mGy/Mbq
- Absorbed dose (AD average) Left colon [2]: 2.85E-02 mGy/Mbq
- Absorbed dose (AD average) Prostate [2]: 2.81E-02 mGy/Mbq
- Absorbed dose (AD average) Rectum [2]: 2.84E-02 mGy/Mbq
- Absorbed dose (AD average) Right colon [2]: 2.86E-02 mGy/Mbq
- Absorbed dose (AD average) Stomach Wall [2]: 2.84E-02 mGy/Mbq
- Absorbed dose (AD average) Testes [2]: 2.72E-02 mGy/Mbq
- Absorbed dose (AD average) Thymus [2]: 2.79E-02 mGy/Mbq
- Absorbed dose (AD average) Thyroid [2]: 2.81E-02 mGy/Mbq
- Absorbed dose (AD average) Urinary Bladder Wall [2]: 2.81E-02 mGy/Mbq
- Effective dose (average) (ICRP 89 Adult Male, extrapolated, in mSv/MBq (unit assumed)): 2.91E-02
- higher tissue doses vs. the 177Lu-labeled analogs (human extrapolation, average over tissues): ~ 38%
Compound: N#C[C@@H]1CC(F)(F)CN1C(=O)CNC(=O)c1ccnc2ccc(OCCCCNC(=O)CC[C@H](NC(=O)CN3CCN(CC(=O)[O-])CCN(CC(=O)[O-])CCN(CC(=O)[O-])CC3)C(=O)NCCCCOc3ccc4nccc(C(=O)NCC(=O)N5CC(F)(F)C[C@H]5C#N)c4c3)cc12.[161Tb+3] [[^161Tb]Tb-DO3A.Glu.(FAPI)2]
- Absorbed dose (AD average) Kidneys [1]: 3.48E-02 ± 0.001 mGy/Mbq and 3.48E-02 mGy/Mbq
- Absorbed dose (AD average) Liver [1]: 1.01E-01 ± 0.004 mGy/Mbq and 1.01E-01 mGy/Mbq
- Absorbed dose (AD average) Lungs [1]: 5.78E-02 ± 0.01 mGy/Mbq and 5.78E-02 mGy/Mbq
- Absorbed dose (AD average) Osteogenic Cells [1]: 8.70E-02 ± 0.003 mGy/Mbq and 8.70E-02 mGy/Mbq
- Absorbed dose (AD average) Pancreas [1]: 3.59E-02 ± 0.001 mGy/Mbq and 3.59E-02 mGy/Mbq
- Absorbed dose (AD average) Red Marrow [1]: 4.37E-02 ± 0.002 mGy/Mbq and 4.37E-02 mGy/Mbq
- Absorbed dose (AD average) Salivary Glands [1]: 1.22E-01 ± 0.01 mGy/Mbq and 1.22E-01 mGy/Mbq
- Absorbed dose (AD average) Small Intestine [1]: 3.72E-02 ± 0.002 mGy/Mbq and 3.72E-02 mGy/Mbq
- Absorbed dose (AD average) Spleen [1]: 8.87E-02 ± 0.004 mGy/Mbq and 8.87E-02 mGy/Mbq
- Absorbed dose (AD average) Total Body [1]: 4.70E-02 ± 0.002 mGy/Mbq and 4.70E-02 mGy/Mbq
- Absorbed dose (AD average) Kidneys [2]: 2.84E-02 ± 0.001 mGy/Mbq and 2.84E-02 mGy/Mbq
- Absorbed dose (AD average) Liver [2]: 8.31E-02 ± 0.003 mGy/Mbq and 8.31E-02 mGy/Mbq
- Absorbed dose (AD average) Lungs [2]: 4.73E-02 ± 0.01 mGy/Mbq and 4.73E-02 mGy/Mbq
- Absorbed dose (AD average) Osteogenic Cells [2]: 8.97E-02 ± 0.003 mGy/Mbq and 8.97E-02 mGy/Mbq
- Absorbed dose (AD average) Pancreas [2]: 2.88E-02 ± 0.001 mGy/Mbq and 2.88E-02 mGy/Mbq
- Absorbed dose (AD average) Red Marrow [2]: 3.45E-02 ± 0.001 mGy/Mbq and 3.45E-02 mGy/Mbq
- Absorbed dose (AD average) Salivary Glands [2]: 1.00E-01 ± 0.01 mGy/Mbq and 1.00E-01 mGy/Mbq
- Absorbed dose (AD average) Small Intestine [2]: 2.85E-02 ± 0.001 mGy/Mbq and 2.85E-02 mGy/Mbq
- Absorbed dose (AD average) Spleen [2]: 7.27E-02 ± 0.003 mGy/Mbq and 7.27E-02 mGy/Mbq
- Absorbed dose (AD average) Total Body [2]: 3.70E-02 ± 0.002 mGy/Mbq and 3.70E-02 mGy/Mbq
